From patent publication US20100167925A1, “Substituted Azolin-2-yl-Amino Compounds” (BASF SE, priority 2006, published 2010)

Assays:
Aphis gossypii = assay: Cotton aphid (Aphis gossypii) mortality on dipped cotton plants; assay type: in vivo; details: 120 h, cotton plants in cotyledon stage dipped into test solution, aphid mortality determined after 5 days, read-out: mortality in comparison with untreated controls
Experimental: I. Cotton Aphid (Aphis gossypii)
(§1) Cotton plants in the cotyledon stage (variety ‘Delta Pine’) are infested with approximately 100 laboratory-reared aphids by placing infested leaf sections on top of the test plants. The leaf sections are removed after 24 hours. The cotyledons of the intact plants are dipped into gradient solutions of the test compound. Aphid mortality on the treated plants, relative to mortality on check plants, is determined after 5 days.

Myzus persicae = assay: Green peach aphid (Myzus persicae) mortality on dipped pepper plants; assay type: in vivo; details: 120 h, pepper plants in 2nd leaf-pair stage dipped into test solution, aphid mortality determined after 5 days, read-out: mortality in comparison with untreated controls
Experimental: I.b. Green Peach Aphid (Myzus persicae)
as §1, with “Pepper” for “Cotton”, “2nd leaf-pair” for “cotyledon”, “‘California Wonder’)” for “‘Delta Pine’)”, “40” for “100”, “leaves” for “cotyledons”

Row | melting point [°C] | Compound | mortality at 300 ppm (Aphis gossypii) [%] | mortality at 300 ppm (Myzus persicae) [%]
1 | 161 to 163 | CC1(C)Cc2ccccc2C1N=C1SCCN1C1=NCCS1 (stereo not drawn) | – | –
2 | – | CC1(C)Cc2ccccc2C1NC1=NCCS1 (stereo not drawn) [Example 22, (4,5-Dihydro-thiazol-2-yl)-(2,2-dimethyl-indan-1-yl)-amine] | > 70 | > 70
